The results in this text go back to US9675681B2, “Shortened purification process for the production of capsular Streptococcus pneumoniae polysaccharides” (priority 2007, dated 2017).

For test [1], the system named is R6X. Nature of the test: Microtiter plate lysis assay, strain R6X (wild type lytA). The test is classed as cell-based, S. pneumoniae. The following applies: compound 0.1%, 15 min at 36° C. An excerpt: (§1) Mitrotiter Assay: A rapid microtiter plate assay was devised for examining lytA-dependent lysis of pneumococci by different detergents or surfactants. Two pairs of isogenic strains of S. pneumoniae were used in the assay; one member of each pair was wild type for the lytA gene while the other strain carried a deletion in the lytA gene Thus, if lysis were dependent on an active lytA function, that detergent would not lyse the mutant strains. The four strains, R6X, R6X ΔlytA, D39 and D39 ΔlytA, were cultivated in HySoy medium to approximately mid-log phase (OD600˜0.2-0.8; OD600=Optical Density at 600 nm). Cells were then centrifuged and cell pellets were resuspended in HySoy medium. To each well of the microtiter plate, 100 μL, of cell suspension was added, along with 10 μL, of detergent stocks or water as a control. After about 15 minutes at 36° C., the OD600 of the samples was measured with a Spectramax® spectrophotometer (Molecular Devices, Sunnyvale, Calif.).
(§2) Isogenic pairs of strains containing the lytA mutation were grown in a Hy-Soy based medium. The cells were harvested and dispensed into wells in a microttiter plate. The test compound was added and the culture was incubated. After 15 min at 36° C., the optical density (OD600) of each well was determined using a SpectraMax® plate reader (Molecular Devices, Sunnyvale, CALIF.)(see Tables 17 and 18, which summarize results from two separate tests for exemplary compounds).

Test [2] concerns R6X ΔlytA. Put plainly: Microtiter plate lysis assay, strain R6X ΔlytA. The following applies: compound 0.1%, 15 min at 36° C. In kind it is cell-based, S. pneumoniae.
Description: as §1, §2

Test [3] deals with D39. Put plainly: Microtiter plate lysis assay, strain D39 (wild type lytA). The test is classed as cell-based, S. pneumoniae. The following applies: compound 0.1%, 15 min at 36° C. The protocol: as §1, with “Two pairs of isogenic strains of S. pneumoniae were used in the assay; one member of each pair was wild type for the lytA gene while the other strain carried a deletion in the lytA gene Thus, if lysis were dependent on an active lytA function, that detergent would not lyse the mutant strains.” left out
(§3) Isogenic pairs of strains containing the lytA mutation were grown in a Hy-Soy based medium. The cells were harvested and dispensed into wells in a microttiter plate. The test compound was added and the culture was incubated.

Test [4] relates to D39 ΔlytA. Nature of the test: Microtiter plate lysis assay, strain D39 ΔlytA. The test is classed as cell-based, S. pneumoniae. The following applies: compound 0.1%, 15 min at 36° C.
Description: as §1, §2

Test [5] deals with Streptococcus pneumoniae cells. Put plainly: Screening for non-animal derived lytic agents (serotypes 1 and 6B PS release by SEC-HPLC; lytA mutants). The test is classed as cell-based. The following applies: screening studies with serotypes 1 and 6B and lytA mutants. The protocol: Cell Lysis: Compounds to be tested were added to fermentation broth at a final concentration of 0.1 to 0.01% (v/v) and the solution was allowed to incubate at 37° C. for one hour. The solution was then stored at 2-8° C. overnight. The following morning the solution was centrifuged to remove all cell debris. The cell-free broth was analyzed by SEC-HPLC to determine the concentration of released polysaccharide. The lysis could be performed at any temperature between 2-37° C., preferably at a pH range of 6.0-7.5. The concentration of the detergent was typically between 0.05-0.2% depending on the particular detergent.
S. pneumoniae serotypes 1 and 6B were separately grown in Hy-Soy based media. The cultures were separately harvested and separately dispensed into tubes. […] After overnight incubation, the tubes were centrifuged and the PS content of the lysates for each serotype were determined by SEC-HPLC and compared to DOC.
as §3

The test system of test [6] is Wild-type cells (R6X, D39). Nature of the test: Microtiter plate lysis assay, wild-type cells. To be noted: freshly prepared or frozen and thawed cells; about 15 minutes at 36° C. The test is classed as cell-based, S. pneumoniae.
Description: as §1

The subject of test [7] is ΔlytA cells (R6X ΔlytA, D39 ΔlytA). Nature of the test: Microtiter plate lysis assay, ΔlytA cells. The test is classed as cell-based, S. pneumoniae. To be noted: freshly prepared or frozen and thawed cells; about 15 minutes at 36° C.
Description: as §1

On to `CCCCCCC(=O)O` [Heptanoic acid], for which the “Change in OD600, R6X” value in test [1] (Test 1) is given as 25%. Also, the “Change in OD600, R6X ΔlytA” value in test [2] (Test 1) is recorded as −57%. For the same compound, the “Change in OD600, D39” value in test [3] (Test 1) is listed as 7%. Moreover, in test [4] (Test 1), the “Change in OD600, D39 ΔlytA” value is listed as −30%.

For the compound “tert-Octylphenoxy poly(oxyethylene)ethanol [Igepal® CA-630]”, the “Lytic activity compared to DOC (outcome of the screening studies)” value (“Lytic activity compared to DOC” for short) in test [5] is given as “non-animal derived lytic agent alternatives to DOC”.

On to `C[C@H](CCC(=O)O)[C@H]1CC[C@H]2[C@@H]3[C@H](O)C[C@@H]4C[C@H](O)CC[C@]4(C)[C@H]3C[C@H](O)[C@]12C` [cholate], for which the “Lytic activity compared to DOC” value in test [5] is “non-animal derived lytic agent alternatives to DOC”.

`C[C@H](CCC(=O)O)[C@H]1CC[C@H]2[C@@H]3CC[C@@H]4C[C@H](O)CC[C@]4(C)[C@H]3CC[C@]12C` [Lithocholic acid]: the “Change in OD600, R6X” value in test [1] (Test 1) is listed as 20%. In addition, in test [2] (Test 1), the “Change in OD600, R6X ΔlytA” value worked out at 16%. Further, the “Change in OD600, D39” value in test [3] (Test 1) is 8%. The “Change in OD600, D39 ΔlytA” value in test [4] (Test 1) is listed as −2%.

As to Tauroglycocholic acid, the “Change in OD600, R6X” value in test [1] (Test 1) was 51%. For the same compound, the “Change in OD600, R6X ΔlytA” value in test [2] (Test 1) is −16%. The “Change in OD600, D39” value in test [3] (Test 1) worked out at 47%. Also, in test [4] (Test 1), the “Change in OD600, D39 ΔlytA” value is reported as −20%.

In the case of `CCCCCCCCCCCCOS(=O)(=O)[O-].[Na+]` [SDS, sodium dodecyl sulfate], the figures for the “Change in OD600, R6X” value in test [1] (Test 1) and in test [1] (Test 2) were 99% and 102%, respectively. The “Change in OD600, R6X ΔlytA” value is 28% in test [2] (Test 1) and −13% in test [2] (Test 2). Further, the “Change in OD600, D39” value in test [3] (Test 1) worked out at 95%; in test [3] (Test 2), 100%. Besides, the “Change in OD600, D39 ΔlytA” value in test [4] (Test 1) amounted to 36%; in test [4] (Test 2) it was 16%. The “Lysis of wild-type cells (OD600 versus medium blank)” value (“Lysis … (OD600 versus medium blank)” for short) in test [6] is reported as “lysis had occurred”. In addition, in test [7], the “Lysis of ΔlytA cells” value is “did not lyse”. Also, the “Lytic activity compared to DOC” value in test [5] is given as “non-animal derived lytic agent alternatives to DOC”.

For `CCCCCCCCCCCCN(CCC(=O)O)CCC(=O)O` [lauryl iminodipropionate], the “Lytic activity compared to DOC” value in test [5] is reported as “non-animal derived lytic agent alternatives to DOC”.

Regarding `C[C@H](CCC(=O)NCCS(=O)(=O)O)[C@H]1CC[C@H]2[C@@H]3CC[C@@H]4C[C@H](O)CC[C@]4(C)[C@H]3C[C@H](O)[C@]12C` [taurodeoxycholate], the “Lytic activity compared to DOC” value in test [5] is “non-animal derived lytic agent alternatives to DOC”.

With `C[C@H](CCC(=O)NCC(=O)O)[C@H]1CC[C@H]2[C@@H]3CC[C@@H]4C[C@H](O)CC[C@]4(C)[C@H]3C[C@H](O)[C@]12C` [glycodeoxycholate], the “Lytic activity compared to DOC” value in test [5] is listed as “non-animal derived lytic agent alternatives to DOC”.

As for `C[C@H](CCC(=O)O)[C@H]1CC[C@H]2[C@@H]3[C@H](O)C[C@@H]4C[C@H](O)CC[C@]4(C)[C@H]3CC[C@]12C` [chenodeoxycholate], the “Lytic activity compared to DOC” value in test [5] was “non-animal derived lytic agent alternatives to DOC”.

For the compound `C[C@H](CCC(=O)O)[C@H]1CC[C@H]2[C@@H]3C[C@H](O)[C@@H]4C[C@H](O)CC[C@]4(C)[C@H]3CC[C@]12C` [hyodeoxycholate], the “Lytic activity compared to DOC” value in test [5] is on record as “non-animal derived lytic agent alternatives to DOC”.

For the compound `C[C@H](CCC(=O)O)[C@H]1CC[C@H]2[C@@H]3CC[C@@H]4C[C@H](O)CC[C@]4(C)[C@H]3C[C@H](O)[C@]12C` [Deoxycholic acid], the “Change in OD600, R6X” value in test [1] (Test 1) worked out at 100%; in test [1] (Test 2) it was 103%. The “Change in OD600, R6X ΔlytA” value came out at 34% in test [2] (Test 1) and 20% in test [2] (Test 2). For the same compound, the “Change in OD600, D39” value in test [3] (Test 1) was found to be 99%; in test [3] (Test 2), 101%. In addition, the “Change in OD600, D39 ΔlytA” value in test [4] (Test 1) was determined as 47%; in test [4] (Test 2) it was 41%.

With `CCCCCCCCS(=O)(=O)O` [Octanesulfonic acid], the “Change in OD600, R6X” value in test [1] (Test 1) was found to be 43%; in test [1] (Test 2) it was 13%. Also, the “Change in OD600, R6X ΔlytA” value in test [2] (Test 1) is on record as 6%; in test [2] (Test 2) it was 3%. The “Change in OD600, D39” value in test [3] (Test 1) stood at 34%; in test [3] (Test 2), 18%. In addition, the “Change in OD600, D39 ΔlytA” value in test [4] (Test 1) is 16%; in test [4] (Test 2), −3%.

Consider `CCCCCCCCCCS(=O)(=O)O` [decanesulfonic acid], for which the “Lytic activity compared to DOC” value in test [5] is recorded as “non-animal derived lytic agent alternatives to DOC”.

`CCCCCCCCCCCCN(C)CC(=O)O` [N-lauryl sarcosine]: the “Change in OD600, R6X” value in test [1] (Test 1) is recorded as 100%; in test [1] (Test 2), 102%. Moreover, the “Change in OD600, R6X ΔlytA” value is −34% in test [2] (Test 1) and −40% in test [2] (Test 2). The “Change in OD600, D39” value in test [3] (Test 1) is recorded as 89%; in test [3] (Test 2), 101%. Moreover, the “Change in OD600, D39 ΔlytA” value in test [4] (Test 1) is −44%; in test [4] (Test 2), 14%. In addition, the “Lysis … (OD600 versus medium blank)” value in test [6] is “lysis had occurred”. Further, the “Lysis of ΔlytA cells” value in test [7] was “did not lyse”. In addition, the “Lytic activity compared to DOC” value in test [5] is “non-animal derived lytic agent alternatives to DOC”.

With `CCCCCCCC/C=C\CCCCCCCC(=O)OCCOCC(OCCO)C1OCC(OCCO)C1OCCO` (centres unmarked) [Tween 80], the “Change in OD600, R6X” value in test [1] (Test 1) was 36%. Further, the “Change in OD600, R6X ΔlytA” value in test [2] (Test 1) worked out at 14%. Further, the “Change in OD600, D39” value in test [3] (Test 1) was 20%. Moreover, in test [4] (Test 1), the “Change in OD600, D39 ΔlytA” value came out at 19%.

Regarding `C[C@H](CCC(=O)NCCS(=O)(=O)O)[C@H]1CC[C@H]2[C@@H]3[C@H](O)C[C@@H]4C[C@H](O)CC[C@]4(C)[C@H]3CC[C@]12C` [taurochenodeoxycholate], in test [5], the “Lytic activity compared to DOC” value is recorded as “non-animal derived lytic agent alternatives to DOC”.

For the compound Triton ® X-100, the figures for the “Change in OD600, R6X” value in test [1] (Test 1) and in test [1] (Test 2) were 91% and 101%, respectively. Further, the “Change in OD600, R6X ΔlytA” value in test [2] (Test 1) is reported as 22%; in test [2] (Test 2), −19%. For the same compound, the “Change in OD600, D39” value amounted to 97% in test [3] (Test 1) and 100% in test [3] (Test 2). The “Change in OD600, D39 ΔlytA” value in test [4] (Test 1) is given as 30%; in test [4] (Test 2) it was 4%. Besides, the “Lysis … (OD600 versus medium blank)” value in test [6] is reported as “lysis had occurred”. Besides, the “Lysis of ΔlytA cells” value in test [7] is recorded as “did not lyse”. Also, the “Lytic activity compared to DOC” value in test [5] is “non-animal derived lytic agent alternatives to DOC”.
